Measured values: patent US20040171566A1, “Antisense modulation of p38 mitogen activated protein kinase expression” (priority 1999, published 2004)
In the oligonucleotide strings, read from the 5' end, every base follows the letter of its sugar. An asterisk marks phosphorothioate; unmarked linkages are phosphodiester. Other units and linkages are bracketed, terminal groups are in braces. A string of capitals states the bases alone. e = 2'-O-(2-methoxyethyl) (MOE); [5mC] = 5-methylcytosine; d = 2'-deoxy (DNA)

Columns and labels:
human p38β mRNA = assay: Human p38β mRNA expression in T-24 cells; conditions: for % P38β mRNA EXPRESSION: initial screen of human p38α oligonucleotides
human p38α mRNA = assay: Human p38α mRNA expression in T-24 cells; conditions: for % P38α mRNA EXPRESSION: initial screen of human p38α oligonucleotides
mouse p38α mRNA [1] = assay: Mouse p38α mRNA levels in bEND.3 cells, quantitative real-time PCR; format: cell-based; set-up: % Inhib. mouse p38α: concentration or dose not given beside the values; conditions: bEND.3 cells, mRNA by quantitative real-time PCR, average of two experiments
In short: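 Mouse bEND.3 cells, antisense oligonucleotide-treated; p38α mRNA measured by one-step real-time RT-PCR (RT 30 min at 48 °C, then 40 cycles) with a FAM/TAMRA probe. Levels normalized to GAPDH or RiboGreen total RNA, and percent inhibition derived from standard curves of untreated-control mRNA.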

rat p38α mRNA = assay: Rat p38α mRNA levels in NR-8383 cells, quantitative real-time PCR; format: cell-based; conditions: 300 nM oligonucleotide with FuGENE 6, 24 hours, mRNA by quantitative real-time PCR, average of two experiments
mouse p38α mRNA [2] = assay: Inhibition of mouse p38α mRNA expression in bEND.3 cells, Northern blot; format: cell-based; conditions: mouse p38β antisense oligonucleotides, screened as in Example 4
Method: bEND.3, a mouse endothelial cell line (gift of Dr. Werner Risau; see Montesano et al., Cell, 1990, 62, 435, and Stepkowski et al., J. Immunol., 1994, 153, 5336) were grown in high-glucose DMEM (Life Technologies, Gaithersburg, Md.) medium containing 10% fetal bovine serum (FBS) and 1% Penicillin/Streptomycinin. Cells were plated at approximately 2×10^5 cells per 100 mm dish. Within 48 hours of plating, the cells were washed with phosphate-buffered saline (Life Technologies). Then, Opti-MEM7 medium containing 3 μg/mL LIPOFECTIN^7 and an appropriate amount of oligonucleotide were added to the cells. As a control, cells were treated with LIPOFECTIN^7 without oligonucleotide under the same conditions and for the same times as the oligonucleotide-treated samples.
After 4 hours at 37° C., the medium was replaced with high glucose DMEM medium containing 10% FBS and 1% Penicillin/Streptomycinin. The cells were typically allowed to recover overnight (about 18 to 24 hours) before RNA and/or protein assays were performed as described in Example 2. The p38α, p38β and G3PDH probes used were identical to those described in Example 2.
Rat p38α antisense oligonucleotides were screened in bEND.3 cells for inhibition of p38α and p38β mRNA expression. The concentration of oligonucleotide used was 100 nM. Oligonucleotides 21844 (SEQ ID NO. 47), 21845 (SEQ ID NO. 48), 21872 (SEQ ID NO. 51), 21873 (SEQ ID NO. 52), 21875 (SEQ ID NO. 54), and 21876 (SEQ ID NO.
Mouse p38β antisense sequences were screened in bEND.3 cells as described in Example 4.

[3] = dose 50 nM, relative to control oligonucleotide = 100%
[4] = dose 100 nM, relative to control oligonucleotide = 100%
[5] = dose 200 nM, relative to control oligonucleotide = 100%
[6] = initial screen of human p38β oligonucleotides

TACCAGCGCGTGGCCACATA (antisense eTeAe[5mC]e[5mC]eA*dG*d[5mC]*dG*d[5mC]*dG*dT*dG*dG*d[5mC]*d[5mC]*eAe[5mC]eAeTeA) [ISIS 107875]
% p38β mRNA Expression (human p38β mRNA; [3]): 82% | % p38β mRNA Expression (human p38β mRNA; [4]): 38% | % p38β mRNA Expression (human p38β mRNA; [5]): 40% | % p38β mRNA Expression (human p38β mRNA; [6]): 92% | % p38α mRNA EXPRESSION (human p38α mRNA; [6]): 112%

TCAAAGGACTGATCATAAGG (eT*e[5mC]*eA*eA*eA*dG*dG*dA*d[5mC]*dT*dG*dA*dT*d[5mC]*dA*eT*eA*eA*eG*eG; antisense) [ISIS 100874]
% P38β mRNA EXPRESSION (human p38β mRNA): 76% | % p38α mRNA EXPRESSION (human p38α mRNA; dose 50 nM): 47% | % p38α mRNA EXPRESSION (human p38α mRNA; dose 100 nM): 27% | % p38α mRNA EXPRESSION (human p38α mRNA; dose 200 nM): 13% | % P38α mRNA EXPRESSION (human p38α mRNA): 42%

TCCAACAGACCAATCACATT (phosphorothioate gapmer, further chemistry not given here) [ISIS 100864]
% Inhib. mouse p38α (mouse p38α mRNA [1]): 83% | % P38β mRNA EXPRESSION (human p38β mRNA): 70% | % P38α mRNA EXPRESSION (human p38α mRNA): 66% | % Inhib. rat p38α (rat p38α mRNA): 57%

TGAATGTATATACTTTAGAC (eT*eG*eA*eA*eT*dG*dT*dA*dT*dA*dT*dA*d[5mC]*dT*dT*eT*eA*eG*eA*e[5mC]; antisense) [ISIS 100866]
% P38β mRNA EXPRESSION (human p38β mRNA): 65% | % P38α mRNA EXPRESSION (human p38α mRNA): 55%

TGCCCTGGAGCAGCTCAGCC (antisense eTeGe[5mC]e[5mC]e[5mC]*dT*dG*dG*dA*dG*d[5mC]*dA*dG*d[5mC]*dT*e[5mC]eAeGe[5mC]e[5mC]) [ISIS 107878]
% p38β mRNA Expression (human p38β mRNA; [3]): 70% | % p38β mRNA Expression (human p38β mRNA; [4]): 43% | % p38β mRNA Expression (human p38β mRNA; [5]): 27% | % p38β mRNA Expression (human p38β mRNA; [6]): 54% | % p38α mRNA EXPRESSION (human p38α mRNA; [6]): 112%

TGTAAGCTTCTGACATTTCA (phosphorothioate gapmer, further chemistry not given here) [ISIS 100865]
% P38β mRNA EXPRESSION (human p38β mRNA): 63% | % P38α mRNA EXPRESSION (human p38α mRNA): 64%

TTCTCTTATCTGAGTCCAAT (chimeric deoxy gapped, phosphorothioate, further chemistry not given here) [ISIS 100872]
% P38β mRNA EXPRESSION (human p38β mRNA): 77% | % p38α mRNA EXPRESSION (human p38α mRNA; dose 50 nM): 45% | % p38α mRNA EXPRESSION (human p38α mRNA; dose 100 nM): 18% | % p38α mRNA EXPRESSION (human p38α mRNA; dose 200 nM): 17% | % P38α mRNA EXPRESSION (human p38α mRNA): 37%

ToAoCoCoAsCsCsGsTsGsTsGsGsCsCsAoCoAoToA (antisense eTeAe[5mC]e[5mC]eA*d[5mC]*d[5mC]*dG*dT*dG*dT*dG*dG*d[5mC]*d[5mC]*eAe[5mC]eAeTeA) [ISIS 100810]
% p38α mRNA INHIBITION (mouse p38α mRNA [2]): 1%
